Laboratory results: patent publication US11739098B2 (BRISTOL-MYERS SQUIBB COMPANY, priority 2017, dated 2023)

Experiments:
Assay type in all cases: cell-based
human TLR8 = molecular target: T1, human TLR8 (Homo sapiens, UniProt Q9NR97); test: TLR8 inhibition reporter assay (HEK-Blue cells, SEAP reporter, R848 stimulation); details: HEK-Blue cells overexpressing human TLR8, SEAP reporter, R848 15.9 μM
T1 construct: host or cells: HEK-Blue cells (HEK293-derived reporter line)
T1 sequence (Q9NR97 27-1041): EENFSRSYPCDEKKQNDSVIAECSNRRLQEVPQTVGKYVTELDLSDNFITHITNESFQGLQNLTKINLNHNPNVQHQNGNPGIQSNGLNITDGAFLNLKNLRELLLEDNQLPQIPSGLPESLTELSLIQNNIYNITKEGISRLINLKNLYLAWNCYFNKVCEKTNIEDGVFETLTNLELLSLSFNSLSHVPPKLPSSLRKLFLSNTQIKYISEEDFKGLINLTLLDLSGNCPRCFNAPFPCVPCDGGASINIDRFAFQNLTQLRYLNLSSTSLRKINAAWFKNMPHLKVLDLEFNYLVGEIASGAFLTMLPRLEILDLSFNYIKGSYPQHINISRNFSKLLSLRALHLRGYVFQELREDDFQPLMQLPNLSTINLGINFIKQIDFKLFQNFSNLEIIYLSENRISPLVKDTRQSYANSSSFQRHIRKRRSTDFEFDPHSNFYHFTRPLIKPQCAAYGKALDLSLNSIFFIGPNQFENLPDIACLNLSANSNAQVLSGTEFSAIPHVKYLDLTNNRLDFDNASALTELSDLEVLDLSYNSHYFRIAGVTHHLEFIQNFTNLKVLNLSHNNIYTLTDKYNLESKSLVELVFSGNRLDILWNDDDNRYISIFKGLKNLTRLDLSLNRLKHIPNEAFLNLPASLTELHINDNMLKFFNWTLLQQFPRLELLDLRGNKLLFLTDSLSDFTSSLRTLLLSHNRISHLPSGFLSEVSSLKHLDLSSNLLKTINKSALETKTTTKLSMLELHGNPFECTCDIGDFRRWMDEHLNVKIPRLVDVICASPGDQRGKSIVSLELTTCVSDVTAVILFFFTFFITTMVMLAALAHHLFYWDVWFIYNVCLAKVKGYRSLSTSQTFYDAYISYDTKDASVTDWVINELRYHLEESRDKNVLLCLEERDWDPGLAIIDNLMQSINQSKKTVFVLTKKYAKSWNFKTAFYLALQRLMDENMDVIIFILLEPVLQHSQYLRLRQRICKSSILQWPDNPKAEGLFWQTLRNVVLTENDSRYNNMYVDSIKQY
Procedure, shortened: (§1)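 HEK-Blue cells overexpressing human TLR7, TLR8 or TLR9 (NF-κB/AP-1-driven SEAP) pre-treated 30 min at room temperature with compound (0.05 nM–50 μM), then stimulated with gardiquimod 7.5 μM (TLR7), R848 15.9 μM (TLR8) or ODN2006 5 nM (TLR9). SEAP read colorimetrically after 22 h at 37 °C; % inhibition calculated.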

human TLR7 = molecular target: T2, human TLR7 (Homo sapiens, UniProt Q9NYK1); test: TLR7 inhibition reporter assay (HEK-Blue cells, SEAP reporter, gardiquimod stimulation); details: HEK-Blue cells overexpressing human TLR7, SEAP reporter, gardiquimod 7.5 μM
T2 construct: host or cells: HEK-Blue cells (HEK293-derived reporter line)
T2 sequence (Q9NYK1 27-1049): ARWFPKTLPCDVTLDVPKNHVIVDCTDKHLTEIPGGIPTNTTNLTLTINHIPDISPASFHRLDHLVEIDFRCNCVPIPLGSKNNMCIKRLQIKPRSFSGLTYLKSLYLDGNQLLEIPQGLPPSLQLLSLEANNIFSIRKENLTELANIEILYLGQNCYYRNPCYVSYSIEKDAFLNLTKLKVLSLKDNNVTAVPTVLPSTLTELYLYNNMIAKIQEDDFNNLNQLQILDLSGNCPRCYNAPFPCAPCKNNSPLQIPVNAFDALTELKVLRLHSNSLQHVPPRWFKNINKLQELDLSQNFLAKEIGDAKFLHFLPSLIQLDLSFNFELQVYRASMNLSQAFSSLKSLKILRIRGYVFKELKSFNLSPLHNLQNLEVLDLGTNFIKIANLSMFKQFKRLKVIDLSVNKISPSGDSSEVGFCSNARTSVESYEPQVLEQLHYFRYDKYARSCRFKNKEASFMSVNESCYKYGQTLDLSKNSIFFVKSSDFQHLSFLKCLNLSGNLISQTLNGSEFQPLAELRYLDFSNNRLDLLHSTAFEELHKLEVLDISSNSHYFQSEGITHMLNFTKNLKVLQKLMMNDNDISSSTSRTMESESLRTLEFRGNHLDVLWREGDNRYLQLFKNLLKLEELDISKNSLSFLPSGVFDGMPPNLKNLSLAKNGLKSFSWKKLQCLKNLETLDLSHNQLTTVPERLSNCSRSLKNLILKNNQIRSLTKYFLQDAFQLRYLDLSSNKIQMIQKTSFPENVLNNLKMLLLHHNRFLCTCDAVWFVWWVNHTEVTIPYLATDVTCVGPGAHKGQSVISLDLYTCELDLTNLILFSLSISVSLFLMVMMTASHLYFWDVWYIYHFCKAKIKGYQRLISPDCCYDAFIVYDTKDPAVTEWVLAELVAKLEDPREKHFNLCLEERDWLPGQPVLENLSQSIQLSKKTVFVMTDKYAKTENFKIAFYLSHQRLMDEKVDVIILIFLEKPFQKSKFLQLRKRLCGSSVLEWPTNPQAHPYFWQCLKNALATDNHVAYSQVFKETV
Procedure, shortened: as §1

human TLR9 = molecular target: T3, human TLR9 (Homo sapiens, UniProt Q9NR96); test: TLR9 inhibition reporter assay (HEK-Blue cells, SEAP reporter, ODN2006 stimulation); details: HEK-Blue cells overexpressing human TLR9, SEAP reporter, ODN2006 5 nM
T3 construct: host or cells: HEK-Blue cells (HEK293-derived reporter line)
T3 sequence (Q9NR96 26-1032): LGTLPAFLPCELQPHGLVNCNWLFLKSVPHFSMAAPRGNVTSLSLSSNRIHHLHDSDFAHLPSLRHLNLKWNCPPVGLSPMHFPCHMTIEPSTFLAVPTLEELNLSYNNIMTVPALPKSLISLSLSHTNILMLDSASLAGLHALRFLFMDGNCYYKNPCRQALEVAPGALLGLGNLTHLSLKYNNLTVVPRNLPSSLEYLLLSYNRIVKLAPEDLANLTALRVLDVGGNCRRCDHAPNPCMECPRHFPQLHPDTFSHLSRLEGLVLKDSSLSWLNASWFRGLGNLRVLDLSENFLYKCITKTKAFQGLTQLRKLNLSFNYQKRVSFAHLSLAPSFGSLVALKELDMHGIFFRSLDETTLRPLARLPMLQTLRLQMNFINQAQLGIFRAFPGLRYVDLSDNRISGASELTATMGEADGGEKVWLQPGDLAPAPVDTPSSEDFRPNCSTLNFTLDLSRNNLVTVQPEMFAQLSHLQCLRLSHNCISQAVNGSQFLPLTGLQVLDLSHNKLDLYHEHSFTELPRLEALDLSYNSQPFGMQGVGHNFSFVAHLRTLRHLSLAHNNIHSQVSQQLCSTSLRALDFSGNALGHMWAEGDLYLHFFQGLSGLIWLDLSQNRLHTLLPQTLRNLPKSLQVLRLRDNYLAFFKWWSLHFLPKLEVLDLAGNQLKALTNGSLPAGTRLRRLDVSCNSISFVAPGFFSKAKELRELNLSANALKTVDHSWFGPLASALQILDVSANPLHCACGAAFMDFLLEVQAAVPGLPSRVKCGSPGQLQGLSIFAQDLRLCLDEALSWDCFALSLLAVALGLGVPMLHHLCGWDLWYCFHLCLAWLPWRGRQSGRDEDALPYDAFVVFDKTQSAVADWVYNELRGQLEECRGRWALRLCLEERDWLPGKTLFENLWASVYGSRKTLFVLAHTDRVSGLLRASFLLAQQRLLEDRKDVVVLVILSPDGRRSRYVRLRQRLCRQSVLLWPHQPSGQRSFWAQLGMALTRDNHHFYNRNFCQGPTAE
Procedure, shortened: as §1

Structure (SMILES) | IC50 (human TLR8) | IC50 (human TLR7) | IC50 (human TLR9)
CCc1c(-c2ccnc3[nH]ncc23)[nH]c2ccc(C3CCN(Cc4csnn4)CC3)cc12 [Example 930, 4-((4-(3-ethyl-2-(1H-pyrazolo[3,4-b]pyridin-4-yl)-1H-indol-5-yl)piperidin-1-yl)methyl)-1,2,3-thiadiazole] | < 0.1 µM | 0.1 to 1 µM | 1 to 50 µM
Cc1cc(-c2[nH]c3ccc(C4CCN(CC(=O)N(C)C)CC4)cc3c2C(C)C)cn2ccnc12 [Example 398, 2-(4-(3-isopropyl-2-(8-methylimidazo[1,2-a]pyridin-6-yl)-1H-indol-5-yl)piperidin-1-yl)-N,N-dimethylacetamide] | < 0.1 µM | < 0.1 µM | 0.1 to 1 µM
CC(C)c1c(-c2ccnc3[nH]ncc23)[nH]c2ccc(C3CCN(CC(C)(C)CN(C)C)CC3)cc12 [Example 847, 3-(4-(3-isopropyl-2-(1H-pyrazolo[3,4-b]pyridin-4-yl)-1H-indol-5-yl)piperidin-1-yl)-N,N,2,2-tetramethylpropan-1-amine] | < 0.1 µM | < 0.1 µM | 0.1 to 1 µM
Cc1cn2cc(-c3[nH]c4ccc(C5CCN(C(=O)C[C@@H](C)O)CC5)cc4c3CC(F)F)ccc2n1 [Example 609, (R)-1-(4-(3-(2,2-difluoroethyl)-2-(2-methylimidazo[1,2-a]pyridin-6-yl)-1H-indol-5-yl)piperidin-1-yl)-3-hydroxybutan-1-one] | > 3.13 µM | 0.1 to 1 µM | 1 to 50 µM
Cc1cc2cc(-c3[nH]c4ccc(C5CCN(CC(C)(C)O)CC5)cc4c3C(C)C)cc(CC(C)C)n2n1 [Example 770, 1-(4-(2-(7-isobutyl-2-methylpyrazolo[1,5-a]pyridin-5-yl)-3-isopropyl-1H-indol-5-yl)piperidin-1-yl)-2-methylpropan-2-ol] | > 3.13 µM | > 3.13 µM | 1 to 50 µM
Cc1nnn2ccc(-c3[nH]c4ccc(C5CCN(Cc6ccn(C)n6)CC5)cc4c3C(C)C)cc12 [Example 888, 5-(3-isopropyl-5-(1-((1-methyl-1H-pyrazol-3-yl)methyl)piperidin-4-yl)-1H-indol-2-yl)-3-methyl-[1,2,3]triazolo[1,5-a]pyridine] | < 0.1 µM | < 0.1 µM | 1 to 50 µM
CCc1c(-c2cccc3[nH]ncc23)[nH]c2ccc(C3CCNCC3)cc12 [Example 182, 4-(3-ethyl-5-(piperidin-4-yl)-1H-indol-2-yl)-1H-indazole] | 1 to 50 µM | 1 to 50 µM | 1 to 50 µM
CC(C)c1c(-c2ccc3[nH]ccc3c2)[nH]c2ccc(C3CCNCC3)cc12 [Example 66, 3-isopropyl-5-(piperidin-4-yl)-1H,1′H-2,5′-biindole] | 1 to 50 µM | 1 to 50 µM | 1 to 50 µM
CC(C)c1c(-c2ccn3cnnc3c2)[nH]c2ccc(C3CCN(C4CCOCC4)CC3)cc12 [Example 697, 7-(3-isopropyl-5-(1-(tetrahydro-2H-pyran-4-yl)piperidin-4-yl)-1H-indol-2-yl)-[1,2,4]triazolo[4,3-a]pyridine] | 0.1 to 1 µM | 0.1 to 1 µM | 0.1 to 1 µM
CCc1c(-c2cc3ccccc3o2)[nH]c2ccc(C3CCNCC3)cc12 [Example 186, 2-(benzofuran-2-yl)-3-ethyl-5-(piperidin-4-yl)-1H-indole] | 1 to 50 µM | 1 to 50 µM | 1 to 50 µM
Cc1cc(-c2[nH]c3ccc(C4CCN(CC(=O)N(C)C)CC4)cc3c2C(C)C)cc2ccnn12 [Example 442, 2-(4-(3-isopropyl-2-(7-methylpyrazolo[1,5-a]pyridin-5-yl)-1H-indol-5-yl)piperidin-1-yl)-N,N-dimethylacetamide] | < 0.1 µM | < 0.1 µM | 1 to 50 µM
Cc1cn2cc(-c3[nH]c4ccc(C5CCN(C(=O)CC(C)(C)O)CC5)cc4c3CC(F)F)ccc2n1 [Example 607, 1-(4-(3-(2,2-difluoroethyl)-2-(2-methylimidazo[1,2-a]pyridin-6-yl)-1H-indol-5-yl)piperidin-1-yl)-3-hydroxy-3-methylbutan-1-one] | 1 to 50 µM | 0.1 to 1 µM | > 50 µM
CC(C)c1c(-c2ccc3nccn3c2)[nH]c2ccc(C3CCN(C(=O)CN(C)C)CC3)cc12 [Example 572, 2-(dimethylamino)-1-(4-(2-(imidazo[1,2-a]pyridin-6-yl)-3-isopropyl-1H-indol-5-yl)piperidin-1-yl)ethan-1-one] | 0.1 to 1 µM | < 0.1 µM | 1 to 50 µM
CCc1c(-c2ccnc3[nH]ncc23)[nH]c2ccc(C3CCNCC3)c(C)c12 [Example 254, 4-(3-ethyl-4-methyl-5-(piperidin-4-yl)-1H-indol-2-yl)-1H-pyrazolo[3,4-b]pyridine] | 1 to 50 µM | 1 to 50 µM | > 50 µM
Cc1nc(CN2CCC(c3ccc4[nH]c(-c5ccc6nccn6c5)c(C(C)C)c4c3)CC2)c[nH]1 [Example 938, 6-(3-isopropyl-5-(1-((2-methyl-1H-imidazol-4-yl)methyl)piperidin-4-yl)-1H-indol-2-yl)imidazo[1,2-a]pyridine] | < 0.1 µM | < 0.1 µM | 0.1 to 1 µM
